Results published in PubChem BioAssay AID248 (DTP/NCI, 2004).
Where “and” joins values, the source holds several entries; their conditions need not be identical. Equal values may be shown once. Toxic doses and inconclusive results are not listed.

System: L1210 leukemia ip in BDF1 mice, survival T/C
Experiment: NCI In Vivo Anticancer Drug Screen. Data for tumor model L1210 Leukemia (intraperitoneal) in B6D2F1 (BDF1) mice
Details: endpoint: mean survival time, higher = longer survival
Procedure, shortened: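 Antitumor effect is assessed in tumor-bearing animals. Survival in the compound arm is compared with a vehicle-dosed control arm and expressed as their quotient.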

[1] = dose: 100.0 mg/kg/injection, schedule: Q01DX001 (ip), vehicle: saline
[2] = dose: 200.0 mg/kg/injection, schedule: Q01DX001 (ip), vehicle: saline
[3] = dose: 100.0 mg/kg/injection, schedule: Q04DX003 (ip), vehicle: saline with Tween-80
[4] = dose: 100.0 mg/kg/injection, schedule: Q01DX009 (ip), vehicle: Klucel (hydroxypropylcellulose) (HPC)
[5] = dose: 200.0 mg/kg/injection, schedule: Q01DX009 (ip), vehicle: Klucel (hydroxypropylcellulose) (HPC)
[6] = dose: 400.0 mg/kg/injection, schedule: Q01DX009 (ip), vehicle: Klucel (hydroxypropylcellulose) (HPC)
[7] = dose: 100.0 mg/kg/injection, schedule: Q01DX009 (ip), vehicle: saline with Tween-80
[8] = dose: 200.0 mg/kg/injection, schedule: Q01DX009 (ip), vehicle: saline with Tween-80
[9] = dose: 200.0 mg/kg/injection, schedule: Q04DX003 (ip), vehicle: saline with Tween-80
[10] = dose: 25.0 mg/kg/injection, schedule: Q01DX009 (ip), vehicle: Klucel (hydroxypropylcellulose) (HPC)
[11] = dose: 50.0 mg/kg/injection, schedule: Q01DX009 (ip), vehicle: Klucel (hydroxypropylcellulose) (HPC)
[12] = dose: 100.0 mg/kg/injection, schedule: Q04DX003 (ip), vehicle: Klucel (hydroxypropylcellulose) (HPC)
[13] = dose: 200.0 mg/kg/injection, schedule: Q04DX003 (ip), vehicle: Klucel (hydroxypropylcellulose) (HPC)
[14] = dose: 400.0 mg/kg/injection, schedule: Q04DX003 (ip), vehicle: Klucel (hydroxypropylcellulose) (HPC)
[15] = dose: 100.0 mg/kg/injection, schedule: Q04DX002 (ip), vehicle: Klucel (hydroxypropylcellulose) (HPC)
[16] = dose: 200.0 mg/kg/injection, schedule: Q04DX002 (ip), vehicle: Klucel (hydroxypropylcellulose) (HPC)
[17] = dose: 50.0 mg/kg/injection, schedule: Q01DX001 (ip), vehicle: saline
[18] = dose: 100.0 mg/kg/injection, schedule: Q01DX001 (ip), vehicle: carboxymethylcellulose (CMC)
[19] = dose: 200.0 mg/kg/injection, schedule: Q01DX001 (ip), vehicle: carboxymethylcellulose (CMC)
[20] = dose: 400.0 mg/kg/injection, schedule: Q01DX001 (ip), vehicle: carboxymethylcellulose (CMC)

Cc1nc(SC(=N)N)nc2c1CCO2
T/C [1]: 96 % of control | T/C [2]: 97 % of control | T/C (dose: 400.0 mg/kg/injection, schedule: Q01DX001 (ip), vehicle: saline): 88 % of control

O=C(Nc1ccc(NC(=O)Nc2cccc(C3=NCCCN3)c2)cc1)Nc1cccc(C2=NCCCN2)c1
T/C (dose: 6.25 mg/kg/injection, schedule: Q01DX Z (ip), vehicle: carboxymethylcellulose (CMC)): 101 % of control | T/C (dose: 8.0 mg/kg/injection, schedule: Q01DX Z (oral), vehicle: carboxymethylcellulose (CMC)): 104 % of control | T/C (dose: 12.5 mg/kg/injection, schedule: Q01DX Z (ip), vehicle: carboxymethylcellulose (CMC)): 102 % of control | T/C (dose: 16.0 mg/kg/injection, schedule: Q01DX Z (oral), vehicle: carboxymethylcellulose (CMC)): 95 % of control | T/C (dose: 31.0 mg/kg/injection, schedule: Q01DX Z (oral), vehicle: carboxymethylcellulose (CMC)): 97 % of control | T/C (dose: 50.0 mg/kg/injection, schedule: Q01DX Z (ip), vehicle: carboxymethylcellulose (CMC)): 157 % of control | T/C (dose: 62.0 mg/kg/injection, schedule: Q01DX Z (oral), vehicle: carboxymethylcellulose (CMC)): 103 % of control | T/C (dose: 125.0 mg/kg/injection, schedule: Q01DX Z (oral), vehicle: carboxymethylcellulose (CMC)): 106 % of control | T/C (dose: 250.0 mg/kg/injection, schedule: Q01DX Z (oral), vehicle: carboxymethylcellulose (CMC)): 105 % of control | T/C (dose: 500.0 mg/kg/injection, schedule: Q01DX Z (oral), vehicle: carboxymethylcellulose (CMC)): 106 % of control

CC1NC=NC1C(c1ccccc1)c1ccccc1 (stereo not given)
T/C [3]: 101 % of control

CC(=O)Nc1ccc(S(=O)(=O)Nc2ccc(F)cc2)cc1
T/C [4]: 96 % of control | T/C [5]: 98 % of control | T/C [6]: 102 % of control

O=C(NCCCBr)Nc1cccc2c1CCCC2
T/C (dose: 50.0 mg/kg/injection, schedule: Q04DX003 (ip), vehicle: saline with Tween-80): 95 % of control | T/C [7]: 100 % of control | T/C [3]: 93 % of control | T/C [8]: 97 % of control | T/C [9]: 101 % of control | T/C (dose: 400.0 mg/kg/injection, schedule: Q01DX009 (ip), vehicle: saline with Tween-80): 96 % of control | T/C (dose: 400.0 mg/kg/injection, schedule: Q04DX003 (ip), vehicle: saline with Tween-80): 95 % of control

COc1ccc(CCN(CCO)CCNS(=O)(=O)c2ccc(C)cc2)cc1
T/C (dose: 100.0 mg/kg/injection, schedule: Q01DX001 (ip), vehicle: water): 98 % of control | T/C (dose: 200.0 mg/kg/injection, schedule: Q01DX001 (ip), vehicle: water): 107 % of control | T/C (dose: 400.0 mg/kg/injection, schedule: Q01DX001 (ip), vehicle: water): 107 % of control

S=C=NC1CCC(CC2CCCCC2)CC1 (stereo not given)
T/C [10]: 105 % of control | T/C [11]: 94 % of control | T/C [4]: 93 % of control and 96 % of control | T/C [12]: 98 % of control | T/C [13]: 101 % of control | T/C [14]: 103 % of control

CCN(C(=O)Nc1ccc(SC)cc1)c1ccccc1
T/C [4]: 103 % of control | T/C [5]: 108 % of control

COc1ccc(CC(=O)NCCc2ccc3c(c2)OCO3)cc1OC
T/C (dose: 50.0 mg/kg/injection, schedule: Q01DX009 (ip), vehicle: saline with Tween-80): 89 % of control | T/C [7]: 91 % of control | T/C [3]: 92 % of control | T/C [8]: 92 % of control | T/C [9]: 96 % of control

CN(C)C(=N)CSS(=O)(=O)O
T/C [15]: 90 % of control | T/C [16]: 101 % of control

O=C(NP(=O)(N1CC1)N1CC1)OCc1ccccc1
T/C (dose: 3.0 mg/kg/injection, schedule: Q01DX Z (ip), vehicle: saline): 118 % of control and 122 % of control | T/C (dose: 3.13 mg/kg/injection, schedule: Q01DX006 (iv), vehicle: clinical formulation): 118 % of control | T/C (dose: 3.13 mg/kg/injection, schedule: Q01DX009 (ip), vehicle: saline): 118 % of control and 120 % of control | T/C (dose: 6.0 mg/kg/injection, schedule: Q01DX Z (ip), vehicle: saline): 104 % of control | T/C (dose: 6.25 mg/kg/injection, schedule: Q01DX006 (iv), vehicle: clinical formulation): 115 % of control | T/C (dose: 6.25 mg/kg/injection, schedule: Q01DX009 (ip), vehicle: saline): 109 % of control and 121 % of control | T/C (dose: 10.0 mg/kg/injection, schedule: Q01DX006 (iv), vehicle: saline): 117 % of control | T/C (dose: 12.0 mg/kg/injection, schedule: Q01DX Z (ip), vehicle: saline): 196 % of control | T/C (dose: 12.5 mg/kg/injection, schedule: Q01DX001 (ip), vehicle: saline): 93 % of control | T/C (dose: 12.5 mg/kg/injection, schedule: Q01DX006 (iv), vehicle: clinical formulation): 120 % of control | T/C (dose: 12.5 mg/kg/injection, schedule: Q01DX009 (ip), vehicle: saline): 97 % of control and 114 % of control | T/C (dose: 20.0 mg/kg/injection, schedule: Q01DX006 (iv), vehicle: saline): 117 % of control | T/C (dose: 25.0 mg/kg/injection, schedule: Q01DX001 (ip), vehicle: saline): 93 % of control | T/C (dose: 25.0 mg/kg/injection, schedule: Q01DX009 (ip), vehicle: saline): 101 % of control and 109 % of control | T/C (dose: 48.0 mg/kg/injection, schedule: Q01DX Z (ip), vehicle: saline): 123 % of control | T/C [17]: 103 % of control | T/C (dose: 50.0 mg/kg/injection, schedule: Q01DX006 (iv), vehicle: clinical formulation): 153 % of control | T/C (dose: 50.0 mg/kg/injection, schedule: Q01DX009 (ip), vehicle: saline): 124 % of control | T/C (dose: 50.0 mg/kg/injection, schedule: Q01DX010 (oral), vehicle: saline): 100 % of control | T/C (dose: 80.0 mg/kg/injection, schedule: Q01DX006 (iv), vehicle: saline): 156 % of control | T/C [1]: 98 % of control | T/C (dose: 100.0 mg/kg/injection, schedule: Q01DX010 (oral), vehicle: saline): 111 % of control | T/C (dose: 200.0 mg/kg/injection, schedule: Q01DX010 (oral), vehicle: saline): 105 % of control | T/C (dose: 400.0 mg/kg/injection, schedule: Q01DX010 (oral), vehicle: saline): 106 % of control

CCS(=O)(=O)C(Br)CBr (stereo not given)
T/C [10]: 100 % of control | T/C [11]: 114 % of control | T/C [4]: 105 % of control | T/C [15]: 103 % of control | T/C [16]: 95 % of control

Cn1cc2ccccc2n1
T/C (dose: 50.0 mg/kg/injection, schedule: Q01DX001 (ip), vehicle: saline with Tween-80): 102 % of control | T/C (dose: 100.0 mg/kg/injection, schedule: Q01DX001 (ip), vehicle: saline with Tween-80): 100 % of control | T/C (dose: 200.0 mg/kg/injection, schedule: Q01DX001 (ip), vehicle: saline with Tween-80): 102 % of control

CC(=O)/C(=C\c1ccc(N(C)C)cc1)C(C)=[N+](C)C(=O)c1c(/[N+](C)=C(C)\C(=C\c2ccc(N(C)C)cc2)C(C)=O)ncn1C
T/C [17]: 103 % of control | T/C [1]: 103 % of control and 90 % of control | T/C [2]: 97 % of control and 118 % of control

O=CNC(c1ccccc1)(c1ccccc1)c1ccccc1
T/C [4]: 99 % of control | T/C [12]: 102 % of control | T/C [5]: 91 % of control | T/C [13]: 94 % of control | T/C [6]: 91 % of control | T/C [14]: 102 % of control

O=[N+]([O-])c1ccc2c(c1)/C(=N\O)c1cc(Cl)c(Cl)cc1-2
T/C [18]: 98 % of control | T/C (dose: 100.0 mg/kg/injection, schedule: Q04DX003 (ip), vehicle: acetone): 94 % of control | T/C [19]: 98 % of control | T/C (dose: 200.0 mg/kg/injection, schedule: Q04DX003 (ip), vehicle: acetone): 100 % of control | T/C [20]: 95 % of control | T/C (dose: 400.0 mg/kg/injection, schedule: Q04DX003 (ip), vehicle: acetone): 96 % of control

CCC(Cl)(Cl)[N+](=O)[O-]
T/C (dose: 100.0 mg/kg/injection, schedule: Q04DX002 (ip), vehicle: saline with Tween-80): 98 % of control | T/C (dose: 200.0 mg/kg/injection, schedule: Q04DX002 (ip), vehicle: saline with Tween-80): 98 % of control | T/C (dose: 400.0 mg/kg/injection, schedule: Q04DX002 (ip), vehicle: saline with Tween-80): 102 % of control

COC1OCC(OCc2ccccc2)C(OCc2ccccc2)C1OCc1ccccc1 (stereo not given)
T/C [18]: 118 % of control | T/C [19]: 98 % of control | T/C [20]: 96 % of control
